Measured values as given in ChEMBL document CHEMBL1151980, “Tubulin-interactive natural products as anticancer agents” (2009).

System: B16
Assay: In vivo antitumor activity against mouse B16 cells assessed as increase in life span
Assay type: functional

CC(=O)O[C@H]1C(=O)[C@@]2(C)[C@H]([C@H](OC(=O)c3ccccc3)[C@]3(O)C[C@H](OC(=O)[C@H](O)[C@@H](NC(=O)c4ccccc4)c4ccccc4)C(C)=C1C3(C)C)[C@]1(OC(C)=O)CO[C@@H]1C[C@@H]2O [PACLITAXEL]
Activity: 32%
